The values that follow come from patent publication US20240139347A1, “COMPLEX, VASCULAR CONTRAST AGENT, X-RAY CONTRAST AGENT, METHOD FOR PRODUCING COMPLEX, AND IMAGING METHOD FOR CAPTURING STRUCTURAL CHANGE IN VESSEL” (TOHOKU UNIVERSITY, priority 2021, published 2024).

The data set is described as follows: in vivo. To be noted: BALB/c, mouse, iv. An excerpt:
The complex disclosed in the present application is preferably retained in the blood until completion of X-ray CT imaging after administration and is preferably excreted by the kidneys by the time of the next X-ray CT imaging. […] As a matter of course, the half-life in blood may be shorter or longer than the above half-life in blood in the case of imaging a temporary structure instead of imaging structural change over time or using a typical X-ray CT imaging device. The half-life in blood can be adjusted by changing the type of protein or the size of the complex. The “half-life in blood” means the time it takes for the X-ray CT value of the complex to decrease by half from the maximum value after administration in vivo. However, the shortest time at which X-ray CT imaging can be started after administration of a contrast agent is about 5 minutes, and thus the measurement value at the time when X-ray CT imaging is started 5 minutes after administration of the contrast agent is defined as the “maximum value after administration in vivo” in the present specification.
Imaging was performed using a micro X-ray CT device (SkyScan1176, Bruker) under conditions of a tube voltage of 50 kV, a tube current of 500 μA, and 35 μm/voxel, 18 μm/voxel, or 9 μm/voxel. The contrast agents synthesized in Example 1 and Comparative Examples 1 and 2 were imaged in vitro. In vivo, 200 μL of each contrast agent was injected into an anesthetized mouse from the tail vein, and CT imaging was performed once or twice. Slice images were acquired using CTAn (Bruker), and volume rendered images were acquired using CTVOX. CT values were calculated by defining the value of Hounsfield Units (HU) as −1000 for air and 0 for water.
The image before the administration of the contrast agent was taken as 0 min (before injection).
FIGS. 16 and 17 show CT images of mouse hearts before and after intravenous administrations of the contrast agents. […] In addition, in FIGS. 16 and 17, the dotted line circles indicate the contour of the hearts, and the tips of the arrows (white and black) indicate the positions of the septa of the hearts.
FIG. 18 is a graph showing results of measuring changes in CT values of ventricles over time.

As for `C[C@H](O)C(=O)Nc1c(I)c(C(=O)NC(CO)CO)c(I)c(C(=O)NC(CO)CO)c1I` [iopamidol, Iopamidol], the “CT value of ventricles” value turned out to be 72 HU and the half-life was under 1 h. For the same compound, under “5 min”, the “CT value of ventricles” value was determined as 291 HU. In addition, the “CT value of ventricles” value (60 min) came out at 130 HU. Further, the “CT value of ventricles” value (180 min) stood at 75 HU. Moreover, under “360 min”, the “CT value of ventricles” value turned out to be 87 HU. Under “24 h”, the “CT value of ventricles” value came to 72 HU.
